US20100204181A1, “N-HALOGENATED AMINO ACID FORMULATIONS COMPRISING PHOSPHINE OR AMINE OXIDES” (ALCON RESEARCH, LTD., priority 2009, published 2010)

Key:
[1] = Chemical stability of N,N-dichloro-2,2-dimethyltaurine solution with and without TBPO or TMAO; format: physicochemical
Description: FIG. 1 is a graph showing the stability of a 0.1 w/v % solution of N,N-dichloro-2,2-dimethyltaurine with and without 0.01 w/v % TBPO; and
FIG. 2 is a graph showing the stability of a 0.11 w/v % solution of N,N-dichloro-2,2-dimethyltaurine with and without 0.037 w/v % TMAO.
The present inventors have discovered that the antimicrobial activity of N-halogenated amino acid compounds is enhanced in a formulation comprising a phosphine oxide or amine oxide compound. The enhancement is synergistic, as the phosphine oxide and amine oxide compounds tested have no intrinsic antimicrobial activity. Also the increase in antimicrobial activity of the N-halogenated amino acid compound in the presence of a phosphine oxide and/or amine oxide compound is likely not due to a chemical reaction that generates a new and more reactive chemical species.

[2] = test system: S. aureus; test: Viable cells per mL of S. aureus after treatment; format: cell-based; conditions: 5 minutes after treatment
Method: As shown above in Table 1, there were only 24 viable cells per mL measured 5 minutes after treatment with 0.001% N,N-dichloro-2,2-dimethyltaurine formulated with acetate buffer at pH 4. In contrast, there were 27429 and 910 viable cells per mL 5 minutes after treatment with a 0.001% N,N-dichloro-2,2-dimethyltaurine formulation comprising no buffer and adipic acid buffer, respectively.

Structure (SMILES): CC(C)(CS(=O)(=O)O)N(Cl)Cl [N,N-dichloro-2,2-dimethyltaurine]
- chemical stability ([1]; 0.1 w/v % solution with and without 0.01 w/v % TBPO (FIG. 1)): not affected
- chemical stability ([1]; 0.11 w/v % solution with and without 0.037 w/v % TMAO (FIG. 2)): not affected
- viable cells per mL ([2]; 0.001% formulated with acetate buffer at pH 4): 24 cells per mL
- viable cells per mL ([2]; 0.001% formulation, adipic acid buffer): 910 cells per mL
- viable cells per mL ([2]; 0.001% formulation, no buffer): 27429 cells per mL
